From publication PMC3242765, “Inhibitors of Alphavirus Entry and Replication Identified with a Stable Chikungunya Replicon Cell Line and Virus-Based Assays” (PLoS ONE, 2011)

Tested on: SFV-Rluc
Settings: Supplementary Table 2, moderately active compounds (25 - 60% remaining), primary screen at 50 µM

Compound	% left (remaining SFV replication) [%]
Cc1ccc(C(C)C)c(O)c1 [NC-101]	42.0
COc1cc(C(=O)O)cc(OC)c1OC [NC-102]	34.1
COc1cc(C=O)ccc1O [NC-106]	47.9
CCCCNc1ccc(C(=O)OCCN(C)C)cc1.Cl [PC-032]	45.2
NC(=O)N1c2ccccc2C=Cc2ccccc21 [PC-037]	57.3
CNC1=Nc2ccc(Cl)cc2C(c2ccccc2)=[N+]([O-])C1 [PC-041]	54.3

Same assay, conditions: primary screening of chemical libraries; compounds tested at 50 µM

Compound	SFV replication % left [%]
COc1cc(C(=O)O)cc(OC)c1O [NC-097]	61.1
CC[C@@]1(O)C(=O)OCc2c1cc1n(c2=O)Cc2cc3ccccc3nc2-1 [NC-099]	87.7
O=C1c2c(O)cc(O)cc2O[C@H](c2ccc(O)c(O)c2)[C@H]1O [NC-100]	93.7
Cc1ccc(C(C)C)c(O)c1 [NC-101]	42.0
COc1cc(C(=O)O)cc(OC)c1OC [NC-102]	34.0
Cc1c(C)c2c(c(C)c1O)CCC(C)(C(=O)O)O2 (centres unmarked) [NC-103]	76.9
O=c1ccc2ccc(O)cc2o1 [NC-104]	93.1
COc1cc(C(=O)O)ccc1O [NC-105]	53.4
COc1cc(C=O)ccc1O [NC-106]	47.9
Cc1cc(C(C)(C)C)c(O)c(C(C)(C)C)c1 [NC-107]	72.6
Cc1cc(=O)oc2cc(O)ccc12 [NC-108]	90.9
COc1cc2oc(=O)ccc2cc1O [NC-109]	120.6
COc1cc2ccc(=O)oc2c(O)c1O [NC-110]	103.6
COc1cc2ccc(=O)oc2c(O)c1OC [NC-111]	77.8
O=c1ccc2ccc(O)c(O)c2o1 [NC-112]	90.6
COc1ccc2ccc(=O)oc2c1O [NC-113]	105.6
COc1cc2ccc(=O)oc2cc1O [NC-114]	81.9
O=c1ccc2ccc(O)cc2o1 [NC-115]	78.4
Cc1ccc2oc(=O)ccc2c1 [NC-116]	83.6
O=c1cc(O)c2ccccc2o1 [NC-117]	100.2
CC(=O)CC(c1ccccc1)c1c(O)c2ccccc2oc1=O (centres unmarked) [NC-118]	79.5
COc1ccc2oc(=O)cc(C)c2c1 [NC-119]	66.6
COc1ccc2c(C)cc(=O)oc2c1 [NC-120]	72.2
Cc1cc(=O)oc2cc(O)cc(O)c12 [NC-122]	66.7
CN1CCCCC1CCN1c2ccccc2Sc2ccc([S+](C)[O-])cc21 (centres unmarked) [NC-123]	131.1

Compound	SFV replication % left [%]
COc1ccc2ccc(=O)oc2c1 [NC-124]	53.2
O=C(O)c1cc2cc(Br)cc(Br)c2oc1=O [NC-125]	67.4
O=c1ccc2cc(O)c(O)cc2o1 [NC-126]	103.6
O.O.O.O=c1ccc2cc(O[C@@H]3O[C@H](CO)[C@@H](O)[C@H](O)[C@H]3O)c(O)cc2o1.O=c1ccc2cc(O[C@@H]3O[C@H](CO)[C@@H](O)[C@H](O)[C@H]3O)c(O)cc2o1 [NC-127]	95.0
COc1cc(OC)c2ccc(=O)oc2c1 [NC-128]	67.4
COc1c2occc2cc2ccc(=O)oc12 [NC-129]	86.7
O=c1oc2c3c4c(cc2c2c1CCC2)CCCN4CCC3 [NC-130]	82.1
O=c1cc(C(F)(F)F)c2cc3c4c(c2o1)CCCN4CCC3 [NC-131]	52.6
CC(=O)Nc1ccc(O)cc1 [PC001-]	63.5
CC(=O)Nc1ccccc1 [PC-002]	57.3
CC(=O)Nc1nnc(S(N)(=O)=O)s1 [PC-003]	71.3
O=C1NC2NC(=O)NC2N1 (centres unmarked) [PC-004]	55.2
CC(=O)NS(=O)(=O)c1ccc(N)cc1 [PC-005]	63.2
N[C@@H](Cc1ccc(O)c(O)c1)C(=O)O [PC-007]	43.6
C=CCC1(CC=C)C(=O)NC(=O)NC1=O [PC-008]	45.6
C=CC[C@]1(O)CC[C@H]2[C@@H]3CCC4=CCCC[C@@H]4[C@H]3CC[C@@]21C [PC-009]	37.2
Nc1ccc(C(=O)O)cc1 [PC-010]	56.5
Cc1c(N)c(=O)n(-c2ccccc2)n1C [PC-011]	51.6
CCC(CN(C)C)(CN(C)C)OC(=O)c1ccccc1.Cl [PC-012]	43.4
C[C@@]12CCC[C@H]1[C@@H]1CC[C@H]3CCCC[C@]3(C)[C@H]1CC2 [PC-013]	53.0
Cl.c1ccc(CN(CC2=NCCN2)c2ccccc2)cc1 [PC-014]	38.7
Cc1cc(=O)n(-c2ccccc2)n1C [PC-015]	60.1
Br.COC(=O)C1=CCCN(C)C1 [PC-016]	83.6
CC(C)NCC(O)COc1ccc(CC(N)=O)cc1 (centres unmarked) [PC-017]	44.2
C[N+]1(C)[C@@H]2CC[C@H]1C[C@@H](OC(=O)C(CO)c1ccccc1)C2.O=[N+]([O-])[O-] (some centres unmarked) [PC-018]	46.8

Compound	SFV replication % left [%]
CCCCNCC(O)c1ccc(O)cc1 (centres unmarked) [PC-019]	67.1
CCC1(CC)C(=O)NC(=O)NC1=O [PC-020]	64.7
O=C1CC(=O)NC(=O)N1 [PC-021]	48.8
CCOC(=O)c1ccc(N)cc1 [PC-023]	43.4
CN(Cc1cc(Br)cc(Br)c1N)C1CCCCC1.Cl [PC-024]	64.8
CCCCNC(=O)c1ccc(Cl)cc1O [PC-025]	49.6
CC(C)(C)NCC(O)COc1ccccc1C#N (centres unmarked) [PC-026]	40.7
CC(C)(C)NC[C@H](O)COc1cccc2c1CCCC2=O [PC-027]	59.6
CS(=O)(=O)OCCCCOS(C)(=O)=O [PC-028]	51.8
CCCCC1(CC)C(=O)NC(=O)NC1=O [PC-029]	45.2
CCC(C)NCC(O)c1ccc2c(c1)CCCC2 (centres unmarked) [PC-030]	73.1
CCCCOC(=O)c1ccc(N)cc1 [PC-031]	76.6
CCCCNc1ccc(C(=O)OCCN(C)C)cc1.Cl [PC-032]	45.4
CCCCNC(=O)NS(=O)(=O)c1ccc(N)cc1 [PC-033]	83.9
CCCCNc1ccc(C(=O)OCCN(C)C)cc1.Cl [PC-034]	63.8
CC(C)(CO)[C@@H](O)C(=O)NCCC(=O)[O-].CC(C)(CO)[C@@H](O)C(=O)NCCC(=O)[O-].[Ca+2] [PC-035]	67.9
CC12CCC(CC1=O)C2(C)C (centres unmarked) [PC-036]	83.9
NC(=O)N1c2ccccc2C=Cc2ccccc21 [PC-037]	57.2
CC(C)(C)NCC(O)COc1cccc2c1CCC(=O)N2.Cl (centres unmarked) [PC-038]	67.2
CCCCCCCCCCCCCCCC[N+](C)(C)C.[Br-] [PC-039]	75.0
O=C(N[C@H](CO)[C@H](O)c1ccc([N+](=O)[O-])cc1)C(Cl)Cl [PC-040]	73.8
CNC1=Nc2ccc(Cl)cc2C(c2ccccc2)=[N+]([O-])C1 [PC-041]	54.3
CC(C)(O)C(Cl)(Cl)Cl [PC-042]	84.2
CN1C(=O)CN=C(c2ccc(Cl)cc2)c2cc(Cl)ccc21 [PC-043]	64.0
